Data reported in article PMC4467156, “A new chemical inhibitor of angiogenesis and tumorigenesis that targets the VEGF signaling pathway upstream of Ras” (Oncotarget, 2015).

Tests used:
[1] = test system: neovascular response to FGF-2; experiment: Mouse sponge angiogenesis assay; type: in vivo; details: Balb/c mice, COB223 100 μM injected into sponge, day 7
Protocol: Disc Cellspon cellulose sponges (thickness 2 mm, diameter 10 mm, Cellomeda; Turku, Finland) were implanted under the skin of Balb-c mice under general anesthesia. Mice were divided in three groups receiving either DMSO, FGF-2, or FGF-2 and COB223 (groups of respectively 6, 7 and 8 mice). […] DMSO, FGF-2 and/or COB223 (50 μL) were injected again into the sponges through the skin on day 1 and 2. A third injection of COB223 alone was performed on day 4. On day 7, the vascularization of the sponges was imaged by non-invasive fluorescence imaging after i.p. injection of RAFT-(cRGD)4 (Angiostamp^TM, Fluoptics, Grenoble, France) as described in [9]. The mice were then anesthetized and sacrificed by cervical dislocation on day 7 and the sponges were rapidly excised and photographed. Each sponge was then homogenized in 1 mL RIPA lysis buffer and the supernatants were used for quantification. The extent of vascularization of the sponge implants was assessed by measuring the amount of hemoglobin using the Drabkin's reagent (Sigma).

Raf phosphorylation = experiment: Western blot, Raf phosphorylation in HUVEC; type: cell-based, human; details: 10 ng/mL VEGF-A 15 min, 25 μM COB223
Protocol: Figure 11 Effect of COB223 on mitogenic or oncogenic activation of the Ras /MEK/ERK signaling pathway (A) Serum-starved HUVEC cells were incubated for 15 min in the presence of 10 ng/mL VEGF-A and in the absence or the presence of 25 μM COB223. The phosphorylations of PLCγ on tyrosine 783, of Raf on serine 338 or on serine 259 and of ERK1/2 were then analyzed by Western blot analysis of the cell lysates as described in Material and Methods. Western blots for total PLCγ, Raf and ERK1/2 were used as loading controls. (B) MCF10A cells overexpressing an oncogenic version of Ras (MCF10A-RasG12V) were treated for the indicated periods of time by 25 μM COB223. Total ERK1/2 and phospho-ERK1/2 were then visualized by Western blotting of the cell extracts. Non-treated regular MCF10A cells were analyzed as a control (first lane). (C) CCL-39 fibroblasts expressing a constitutively active Raf in an estrogen-responsive manner were stimulated for 3 h with estradiol and treated for 15 or 30 min with 25 μM COB223. Total ERK1/2 and phospho-ERK1/2 were then visualized by Western blotting of the cell extracts. Non-treated cells were analyzed as a control (left lanes).
Serum-starved HUVEC cells were incubated for 15 min in the presence of either 10 ng/mL VEGF-A or 20 ng/mL FGF-2 and in the absence or the presence of indicated concentration of COB223. COB223 was incubated 15 min prior to stimulation. […]

ERK1/2 phosphorylation = experiment: Western blot, ERK1/2 phosphorylation in HUVEC; type: cell-based, human
Protocol: Figure 9 Effect of COB223 on growth factor-induced VEGF-R2, MEK and ERK phosphorylations (A) Serum-starved HUVEC cells were incubated for 15 min in the presence of either 10 ng/mL VEGF-A or 20 ng/mL FGF-2 and in the absence or the presence of 25 μM COB223. The phosphorylations of VEGFR2 on tyrosine 1175 or tyrosine 1214, of MEK and ERK1/2 were then analyzed by Western blot analysis of the cell lysates as described in Material and Methods. Western blots for total VEGFR2, MEK and ERK1/2 were used as loading controls. The blots shown in Figure 9A were obtained in one representative experiment. (B) The hybridization signals observed in 5 similar but independent experiments were quantitated and the ratios between phospho-VEGFR2(Y1175) or (Y1214) and VEGFR2 signals were normalized to the value observed in the absence of COB223. (C) The hybridization signals observed in 5 similar but independent experiments were quantitated and the ratios between phospho-ERK1/2 and ERK1/2 and between phospho-MEK and MEK were normalized to the values observed in the absence of COB223. Additional experiments performed with 10% fetal calf serum (FCS) as a mitogen were included in this analysis. * : p < 0.05; ** : p < 0.01
Figure 10 Effect of PKC inhibitors on PMA-, VEGF- and FGF2-induced ERK phoshorylation (A) Serum-starved HUVEC cells were incubated for 15 min in the presence of 10 ng/mL VEGF-A or 20 ng/mL FGF-2 and in the absence or the presence of 25 μM COB223 or 5 μM Gö6983 and 5 μM Gö6976. The phosphorylation ERK1/2 was then analyzed by Western blot analysis of the cell lysates as described in Material and Methods. Western blots for total ERK1/2 were used as loading controls. (B) Serum-starved HUVEC cells were incubated for 5 min in the presence of 200 nM of PMA and in the absence or the presence of 25 μM COB223 or 5 μM Gö6983 and 5 μM Gö6976. The hybridization signals observed were quantitated and the ratio between phospho-ERK1/2 and ERK1/2 was normalized to the values observed in the absence of COB223. Similar results were obtained in 2 independent experiments.
Serum-starved HUVEC cells were incubated for 15 min in the presence of either 10 ng/mL VEGF-A or 20 ng/mL FGF-2 and in the absence or the presence of indicated concentration of COB223. COB223 was incubated 15 min prior to stimulation. Cells were lysed in RIPA buffer ( Tris HCl pH 7.4 10 mM, NaCl 150 mM, SDS 0.1%, Na Deoxycholate 0.5%, EDTA 1 mM, Triton X100 1% and protease inhibitor cocktail (Sigma) for protein extraction. After fractionation of proteins on a 4–15% SDS-PAGE gel and blotting to a nitrocellulose membrane, immunoblotting detection of proteins was done using indicated antibodies according to manufacturer's instruction.

FGFR2 = FGFR2 (Homo sapiens, UniProt P21802); experiment: In vitro kinase assay FGFR2; type: biochemical; details: concentrations up to 50 μM
Protocol: (§1) We first wondered whether COB223 required to be internalized to exert its biological effect. For this, we synthesized a covalent complex between BSA and COB223 and purified it. […] In vitro kinase assays were performed with a panel of purified protein-kinases involved in mitogenic signaling, including VEGFR2, FGFR1, FGFR2, PDGFRß, Met, Raf, MEK1, ERK1, ERK2, PKCα, PKCβI, PKCβII, PKCζ as indicated in Table 2. […] We then analyzed the effect of COB223 on VEGF-induced phosphorylations of VEGFR2, MEK and ERK1/2 (Figure 9). […] (Figure 9A, 9B). […] It was also specific of the p42/p44 MAP kinase pathway as activation of p38 MAP kinase phosphorylation in HUVEC cells by VEGF or serum was unaffected by COB223 (data not shown). The activation of src phosphorylation by VEGF in HUVECs was also unaffected by COB223 (data not shown).

PKCα = PKCα (Homo sapiens, UniProt P17252); experiment: In vitro kinase assay PKCα; type: biochemical; details: concentrations up to 50 μM
Protocol: as §1

Sequence of FGFR2 (P21802 22-821, species assumed): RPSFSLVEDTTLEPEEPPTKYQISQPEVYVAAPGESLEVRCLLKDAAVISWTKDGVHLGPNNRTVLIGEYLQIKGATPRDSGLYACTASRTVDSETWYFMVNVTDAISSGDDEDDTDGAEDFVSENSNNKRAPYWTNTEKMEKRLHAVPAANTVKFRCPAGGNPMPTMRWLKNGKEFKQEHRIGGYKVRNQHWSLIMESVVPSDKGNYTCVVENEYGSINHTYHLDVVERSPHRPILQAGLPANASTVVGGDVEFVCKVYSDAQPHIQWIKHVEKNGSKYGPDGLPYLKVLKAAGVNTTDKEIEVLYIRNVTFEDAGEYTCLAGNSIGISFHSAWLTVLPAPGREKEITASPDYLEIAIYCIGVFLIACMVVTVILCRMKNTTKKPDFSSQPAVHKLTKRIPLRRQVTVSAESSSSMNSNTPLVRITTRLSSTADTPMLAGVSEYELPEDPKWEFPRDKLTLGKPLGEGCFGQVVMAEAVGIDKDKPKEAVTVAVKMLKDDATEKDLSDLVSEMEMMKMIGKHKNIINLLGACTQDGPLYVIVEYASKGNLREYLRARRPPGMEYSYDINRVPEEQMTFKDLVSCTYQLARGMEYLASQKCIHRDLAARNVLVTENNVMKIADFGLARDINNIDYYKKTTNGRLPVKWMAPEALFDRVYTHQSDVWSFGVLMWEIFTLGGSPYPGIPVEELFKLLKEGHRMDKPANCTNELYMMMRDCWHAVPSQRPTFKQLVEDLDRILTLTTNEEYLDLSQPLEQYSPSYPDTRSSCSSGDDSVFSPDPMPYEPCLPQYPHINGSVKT

CN(C)c1cccc2c(S(=O)(=O)NCCCN3CCN(CCCNC(=O)OC(C)(C)C)CC3)cccc12 [COB223, tert-Butyl 3-(4-(3-(5-(dimethylamino)naphthalene-1-sulfonamido)propyl)piperazin-1-yl) propylcarbamate]
neovascular response to FGF-2 (hemoglobin content and fluorescence imaging) [1]: strong inhibition
phosphorylation of Raf on residue S338 (Raf phosphorylation): inhibited
VEGF-induced phosphorylation of ERK1/2 (ERK1/2 phosphorylation; HUVEC, 10 ng/mL VEGF-A 15 min, 25 μM COB223): significantly inhibited
phosphorylation of ERK1/2 induced by the PKC activator PMA (ERK1/2 phosphorylation; HUVEC, 200 nM PMA 5 min, 25 μM COB223): inhibited
concentration at which inhibition of MAP kinase phosphorylation was detectable (ERK1/2 phosphorylation; dose-response study): 5 µM
concentration at which inhibition of MAP kinase phosphorylation was statistically significant (ERK1/2 phosphorylation; dose-response study): 20 µM
kinase inhibition (FGFR2): None of them was inhibited
kinase inhibition (PKCα): None of them was inhibited
